Source: US10479819B2 (priority 2014, dated 2019)
Like-named read-outs stand apart in the source and are kept apart here. Starred links: 1 amine or outer side, 2 acyl side, 3 side chain; linkers in the order of their positions; H or OH if unused. Non-standard residues stand in square brackets, D forms with d. Residues, ends and D or L forms follow the SMILES beside them. Groups on a side chain read outwards from the residue. *: point of attachment. C18 diacid = O=C(O)CCCCCCCCCCCCCCCCC(=O)*; γGlu = O=C(O)[C@H](CCC(=O)[*:2])N[*:1]; Palmitoyl = CCCCCCCCCCCCCCCC(=O)*; PEG2 = NCCOCCOCCC(=O)O; Aib = CC(C)(N)C(=O)O

Experiments:
human GLP-1R = target: T1, human GLP-1R (Homo sapiens, UniProt P43220); assay: In vitro activity on GLP-1R, CRE-luciferase HEK-293 cells; assay type: cell-based; settings: for GLP-1R/GCGR: ratio of EC50 GLP-1R to EC50 GCGR
T1 construct: expressed in transfected cells
T1 sequence (P43220 24-463): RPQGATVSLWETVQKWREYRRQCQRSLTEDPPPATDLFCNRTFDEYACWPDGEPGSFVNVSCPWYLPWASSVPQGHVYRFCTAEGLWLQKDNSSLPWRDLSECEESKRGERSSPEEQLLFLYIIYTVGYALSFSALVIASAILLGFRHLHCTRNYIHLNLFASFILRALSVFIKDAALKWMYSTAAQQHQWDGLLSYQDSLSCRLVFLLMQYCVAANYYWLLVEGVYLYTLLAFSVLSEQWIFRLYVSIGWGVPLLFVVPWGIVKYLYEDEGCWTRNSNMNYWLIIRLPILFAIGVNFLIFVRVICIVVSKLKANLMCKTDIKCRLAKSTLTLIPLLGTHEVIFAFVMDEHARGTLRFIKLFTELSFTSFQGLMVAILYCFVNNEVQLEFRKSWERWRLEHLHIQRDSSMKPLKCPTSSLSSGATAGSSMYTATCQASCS
Summary of the method: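 HEK-293 cells stably expressing human GLP-1R or human GCGR with CRE-luciferase reporter, 5000 cells/well in DMEM/10% FBS, exposed to compound. Luminescence read after luciferase reagent; EC50 taken from concentration-response curves.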

human GCGR = target: T2, human GCGR (Homo sapiens, UniProt P47871); assay: In vitro activity on GCGR, CRE-luciferase HEK-293 cells; assay type: cell-based
T2 construct: expressed in transfected cells
T2 sequence (P47871 26-477): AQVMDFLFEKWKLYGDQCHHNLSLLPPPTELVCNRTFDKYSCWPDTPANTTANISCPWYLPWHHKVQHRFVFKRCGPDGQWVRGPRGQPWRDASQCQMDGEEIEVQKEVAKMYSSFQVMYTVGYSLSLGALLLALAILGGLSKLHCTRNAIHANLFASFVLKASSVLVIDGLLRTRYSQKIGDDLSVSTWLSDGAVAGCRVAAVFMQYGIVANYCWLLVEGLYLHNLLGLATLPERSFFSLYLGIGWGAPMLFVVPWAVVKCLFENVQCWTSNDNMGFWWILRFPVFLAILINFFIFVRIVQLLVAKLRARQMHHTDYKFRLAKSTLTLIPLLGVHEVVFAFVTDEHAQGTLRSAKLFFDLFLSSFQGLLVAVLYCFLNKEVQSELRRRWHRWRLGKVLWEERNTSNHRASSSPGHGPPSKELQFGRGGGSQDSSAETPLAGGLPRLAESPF
Description: 5000 of HEK-293 cells, which are used in CRE-luciferase system and express human GCGR or GLP-1R stably, were inoculated into 384 well plates according to […] DMEM/10% FBS media/well. […] After incubation, […] of luciferase reagent was added directly to each plate and mixed gently for 2 minutes. The plates were placed into an Elmer Perkin plate reader for reading. Concentration curve of the compound was made by drawing software Prism 5, and the EC50 value was calculated.

[1] = Pharmacokinetic analysis after IV or SC administration in male CD1 mice; settings: for clinical adverse effect: IV or SC route, male CD1 mice; for Tmax / half-life: mouse, in vivo, iv
Description: Pharmacokinetic parameters of the drugs were calculated by methods of model dependence (for data obtained from IV) and model independence (data obtained from SC).

male C57B1/6J mice = assay: Oral glucose tolerance test in male C57B1/6J mice; assay type: in vivo; settings: 250 μg/kg; for AUC of blood glucose in all four OGTT curve periods (0-480 min) compared with carrier (PBS): P<0.05; for effect on oral glucose tolerance: male C57B1/6J mice
Description: 12-16 week-old male C57B1/6J mice (Nanjing University model animal research center) were randomly divided into groups 8 in each group, according to similar blood glucose (assessed by the blood samples obtained from the tail tip). After fasting (for 6 hours), the animals were administrated, and about 4 hours later, initial blood samples (fasting blood glucose level) were taken. Subsequently, the animals were administrated with an oral dose of glucose, and then put back into their cages (t=0). Blood glucose was measured at t=15 minutes, t=30 minutes, t=60 minutes, t=90 minutes and t=120 minutes. And then the animals were administrated with an oral dose of glucose again, and blood glucose was tracked until 8 hours.

Work on `CCCCCCCCCCCCCCCC(=O)N[C@@H](CCC(=O)NCCOCCOCCC(=O)NCCOCCOCCC(=O)NCCCC[C@H](NC(=O)[C@H](CO)NC(=O)[C@H](Cc1ccc(O)cc1)NC(=O)[C@H](CC(=O)O)NC(=O)[C@H](CO)NC(=O)[C@@H](NC(=O)[C@H](Cc1ccccc1)NC(=O)[C@@H](NC(=O)CNC(=O)[C@H](CCC(N)=O)NC(=O)[C@@H](CO)NC(=O)[C@@H](N)Cc1c[nH]cn1)[C@@H](C)O)[C@@H](C)O)C(=O)N[C@@H](CCCCN)C(=O)N[C@@H](CC(C)C)C(=O)N[C@@H](CC(=O)O)C(=O)NC(C)(C)C(=O)N[C@@H](CCCNC(=N)N)C(=O)N[C@@H](CCCNC(=N)N)C(=O)N[C@@H](C)C(=O)N[C@@H](CCC(N)=O)C(=O)N[C@@H](CC(=O)O)C(=O)N[C@@H](Cc1ccccc1)C(=O)N[C@H](C(=O)N[C@@H](CCC(N)=O)C(=O)N[C@@H](Cc1c[nH]c2ccccc12)C(=O)N[C@@H](CC(C)C)C(=O)N[C@@H](CCSC)C(=O)N[C@@H](CC(N)=O)C(=O)N[C@H](C(=O)NCC(=O)NCC(=O)N1CCC[C@H]1C(=O)N[C@@H](CO)C(=O)N[C@@H](CO)C(=O)NCC(=O)N[C@@H](C)C(=O)N1CCC[C@H]1C(=O)N1CCC[C@H]1C(=O)N1CCC[C@H]1C(=O)N[C@@H](CO)C(N)=O)[C@@H](C)O)C(C)C)C(=O)O` [Compound 17] yielded a GLP-1R/GCGR (human GLP-1R) of 1.2 and an EC50 (human GCGR; read-out: GCGR (EC50)) of 0.58 nM.

Work on `CSCC[C@H](NC(=O)[C@H](CC(C)C)NC(=O)[C@H](Cc1c[nH]c2ccccc12)NC(=O)[C@H](CCC(N)=O)NC(=O)[C@@H](NC(=O)[C@H](Cc1ccccc1)NC(=O)[C@H](CC(=O)O)NC(=O)[C@H](CCC(N)=O)NC(=O)[C@H](C)NC(=O)[C@H](CCCNC(=N)N)NC(=O)[C@H](CCCNC(=N)N)NC(=O)C(C)(C)NC(=O)[C@H](CC(=O)O)NC(=O)[C@H](CC(C)C)NC(=O)[C@H](CCCCN)NC(=O)[C@H](CCCCNC(=O)CCOCCOCCNC(=O)CCOCCOCCNC(=O)CC[C@H](NC(=O)CCCCCCCCCCCCCCCCC(=O)O)C(=O)O)NC(=O)[C@H](CO)NC(=O)[C@H](Cc1ccc(O)cc1)NC(=O)[C@H](CC(=O)O)NC(=O)[C@H](CO)NC(=O)[C@@H](NC(=O)[C@H](Cc1ccccc1)NC(=O)[C@@H](NC(=O)CNC(=O)[C@H](CCC(N)=O)NC(=O)[C@@H](CO)NC(=O)[C@@H](N)Cc1c[nH]cn1)[C@@H](C)O)[C@@H](C)O)C(C)C)C(=O)N[C@@H](CC(N)=O)C(=O)N[C@H](C(=O)NCC(=O)NCC(=O)N1CCC[C@H]1C(=O)N[C@@H](CO)C(=O)N[C@@H](CO)C(=O)NCC(=O)N[C@@H](C)C(=O)N1CCC[C@H]1C(=O)N1CCC[C@H]1C(=O)N1CCC[C@H]1C(=O)N[C@@H](CO)C(N)=O)[C@@H](C)O` [Compound 18] (H-H[dS]QGTFTSDYSK([PEG2-PEG2-γGlu-C18 diacid])KLD[Aib]RRAQDFVQWLMNTGGPSSGAPPPS-NH2; N-terminus assumed) yielded a GLP-1R/GCGR (human GLP-1R) of 4.2 and an EC50 (human GCGR; read-out: GCGR (EC50)) of 0.18 nM.

In the case of `CCCCCCCCCCCCCCCC(=O)NCCOCCOCCC(=O)NCCOCCOCCC(=O)NCCCC[C@H](NC(=O)[C@H](C)NC(=O)[C@H](C)NC(=O)[C@H](CCCCN)NC(=O)[C@H](CCC(=O)O)NC(=O)[C@H](CC(=O)O)NC(=O)[C@H](CC(C)C)NC(=O)[C@H](Cc1ccc(O)cc1)NC(=O)[C@H](CCCCN)NC(=O)[C@H](CO)NC(=O)[C@H](Cc1ccc(O)cc1)NC(=O)[C@H](CC(=O)O)NC(=O)[C@H](CO)NC(=O)[C@@H](NC(=O)[C@H](Cc1ccccc1)NC(=O)[C@@H](NC(=O)CNC(=O)[C@H](CCC(N)=O)NC(=O)[C@@H](CO)NC(=O)[C@@H](N)Cc1c[nH]cn1)[C@@H](C)O)[C@@H](C)O)C(=O)N[C@@H](CCC(=O)O)C(=O)N[C@@H](Cc1ccccc1)C(=O)N[C@H](C(=O)N[C@@H](CCC(=O)O)C(=O)N[C@@H](Cc1c[nH]c2ccccc12)C(=O)N[C@@H](CC(C)C)C(=O)N[C@@H](CC(C)C)C(=O)N[C@@H](CC(N)=O)C(=O)NCC(=O)NCC(=O)N1CCC[C@H]1C(=O)N[C@@H](CO)C(=O)N[C@@H](CO)C(=O)NCC(=O)N[C@@H](C)C(=O)N1CCC[C@H]1C(=O)N1CCC[C@H]1C(=O)N1CCC[C@H]1C(=O)N[C@@H](CO)C(N)=O)[C@@H](C)CC` [Compound 23] (H-H[dS]QGTFTSDYSKYLDEKAAK([PEG2-PEG2-Palmitoyl])EFIEWLLNGGPSSGAPPPS-NH2), the EC50 (human GLP-1R) is reported as 0.13 nM, the GLP-1R/GCGR (human GLP-1R) is reported as 0.30 and the clinical adverse effect [1] is reported as “no clinical adverse effect”. For the same molecule, the Tmax [1] was roughly 12 h, the half-life [1] was 4 to 6 h and the EC50 (human GCGR) was 0.43 nM. The “AUC of blood glucose in all four OGTT curve periods (0-480 min) compared with carrier (PBS)” value (male C57B1/6J mice) was “significantly decreased” and the “effect on oral glucose tolerance” value (male C57B1/6J mice) was “significantly reduced the oral glucose tolerance”.

With `CCCCCCCCCCCCCCCC(=O)N[C@@H](CCC(=O)NCCOCCOCCC(=O)NCCOCCOCCC(=O)NCCCC[C@H](NC(=O)[C@H](C)NC(=O)[C@H](C)NC(=O)[C@H](CCCCN)NC(=O)[C@H](CCC(=O)O)NC(=O)[C@H](CC(=O)O)NC(=O)[C@H](CC(C)C)NC(=O)[C@H](Cc1ccc(O)cc1)NC(=O)[C@H](CCCCN)NC(=O)[C@H](CO)NC(=O)[C@H](Cc1ccc(O)cc1)NC(=O)[C@H](CC(=O)O)NC(=O)[C@H](CO)NC(=O)[C@@H](NC(=O)[C@H](Cc1ccccc1)NC(=O)[C@@H](NC(=O)CNC(=O)[C@H](CCC(N)=O)NC(=O)[C@@H](CO)NC(=O)[C@@H](N)Cc1c[nH]cn1)[C@@H](C)O)[C@@H](C)O)C(=O)N[C@@H](CCC(=O)O)C(=O)N[C@@H](Cc1ccccc1)C(=O)N[C@H](C(=O)N[C@@H](CCC(=O)O)C(=O)N[C@@H](Cc1c[nH]c2ccccc12)C(=O)N[C@@H](CC(C)C)C(=O)N[C@@H](CC(C)C)C(=O)N[C@@H](CC(N)=O)C(=O)NCC(=O)NCC(=O)N1CCC[C@H]1C(=O)N[C@@H](CO)C(=O)N[C@@H](CO)C(=O)NCC(=O)N[C@@H](C)C(=O)N1CCC[C@H]1C(=O)N1CCC[C@H]1C(=O)N1CCC[C@H]1C(=O)N[C@@H](CO)C(N)=O)[C@@H](C)CC)C(=O)O` [Compound 24] (H-H[dS]QGTFTSDYSKYLDEKAAK([PEG2-PEG2-γGlu-Palmitoyl])EFIEWLLNGGPSSGAPPPS-NH2) the GLP-1R/GCGR (human GLP-1R) was 0.28, the clinical adverse effect [1] was “no clinical adverse effect” and the Tmax [1] was roughly 12 h. For the same molecule, the half-life [1] was 4 to 6 h, the EC50 (human GCGR) was 0.58 nM and the “AUC of blood glucose in all four OGTT curve periods (0-480 min) compared with carrier (PBS)” value (male C57B1/6J mice) was “significantly decreased”. The “effect on oral glucose tolerance” value (male C57B1/6J mice) was “significantly reduced the oral glucose tolerance”.
